Data as given in paper PMC11762167, “G Protein-Coupled Receptor 17 Inhibits Glucagon-like Peptide-1 Secretion via a Gi/o-Dependent Mechanism in Enteroendocrine Cells” (Biomolecules, 2024).

How the values were obtained:
hGPR17L = hGPR17L (Homo sapiens, UniProt Q13304); assay: Membrane β-arrestin recruitment in HEK293 cells transfected with hGPR17L; assay type: cell-based
Experimental: (§1) Membrane β-arrestin recruitment measurements were conducted using a luminescent membrane β-arrestin recruitment reporter assay. HEK293 cells were seeded into white, opaque, poly-D-lysine-coated 96-well plates and transiently transfected using Lipofectamine 3000 (Thermo Fisher Scientific, Waltham, MA, USA) according to the manufacturer’s protocol on the following day. At 48 h post-transfection, cells were washed twice with assay buffer (HBSS, 20 mM HEPES, pH 7.4) and allowed to equilibrate to room temperature for 15 min in assay buffer. Cells were then loaded with coelenterazine h (Nanolight Technology, Prolume Ltd., Lakeside, AZ, USA; 5 µM final concentration) for 5 min in the dark. Luminescence was read using a SpectraMax iD3 (Molecular Devices) with 1 s integration time. Baseline luminescence was read every 2 min for 6 min. Agonist was added and then luminescence was read every 2 min for 30 min.

mGPR17 = mGPR17 (Mus musculus, UniProt Q6NS65); assay: Membrane β-arrestin recruitment in HEK293 cells transfected with mGPR17; assay type: cell-based
Experimental: as §1

[1] = read-out: β-arrestin Potency EC50

Sequence of hGPR17L (Q13304 whole entry): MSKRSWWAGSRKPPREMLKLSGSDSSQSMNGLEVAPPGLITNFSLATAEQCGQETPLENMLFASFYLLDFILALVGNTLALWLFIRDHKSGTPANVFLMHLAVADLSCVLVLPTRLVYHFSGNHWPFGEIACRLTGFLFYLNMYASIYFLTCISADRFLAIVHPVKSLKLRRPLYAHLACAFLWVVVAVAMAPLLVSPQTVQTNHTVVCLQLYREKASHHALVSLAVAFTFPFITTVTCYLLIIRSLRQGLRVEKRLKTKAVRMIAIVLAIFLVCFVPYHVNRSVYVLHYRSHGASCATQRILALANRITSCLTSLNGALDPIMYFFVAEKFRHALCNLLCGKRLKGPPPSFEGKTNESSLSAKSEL
Sequence of mGPR17 (Q6NS65 whole entry): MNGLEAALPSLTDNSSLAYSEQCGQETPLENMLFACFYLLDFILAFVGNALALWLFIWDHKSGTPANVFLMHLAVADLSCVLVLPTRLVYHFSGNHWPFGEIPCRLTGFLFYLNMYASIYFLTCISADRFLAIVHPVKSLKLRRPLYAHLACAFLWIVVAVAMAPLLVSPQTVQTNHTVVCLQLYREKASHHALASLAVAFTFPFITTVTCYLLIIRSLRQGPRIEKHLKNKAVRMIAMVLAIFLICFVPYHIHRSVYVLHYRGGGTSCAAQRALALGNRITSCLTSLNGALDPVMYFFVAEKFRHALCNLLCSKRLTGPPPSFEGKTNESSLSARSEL

O=C(O)CCc1c(C(=O)O)[nH]c2cc(Cl)cc(Cl)c12 [MDL29,951]
β-arrestin Emax (Peak ΔRLU/RLU) (hGPR17L): 0.50±0.03
β-arrestin Potency (pEC50) (hGPR17L): 6.72±0.09
EC50 (hGPR17L; [1]): 190 nM
β-arrestin Emax (Peak ΔRLU/RLU) (mGPR17): 0.54±0.03
β-arrestin Potency (pEC50) (mGPR17): 6.69±0.10
EC50 (mGPR17; [1]): 200 nM
